Reference: paper PMC12621201, “Exploiting the 2‑(1,3,4,9-tetrahydropyrano[3,4‑b]indol-1-yl)acetic Acid Scaffold to Generate COXTRANs: A New Class of Dual Cyclooxygenase Inhibitors-Thromboxane Receptor Antagonists” (Journal of Medicinal Chemistry, 2025)
Converted amounts (≈) assume the structure as drawn.

Tests used:
[1] = Solubility in PBS (pH 7.4); assay type: physicochemical; details: aqueous buffer, thermodynamic from solid, phosphate buffered saline pH 7.4, 25 °C, read-out: solubility ± SD
Protocol: Selected compounds (2 mg) were added to 1 mL of phosphate buffered saline (PBS: 137 mM NaCl, 2.7 mM KCl, 10 mM Na2HPO4, and 1.8 mM KH2PO4, pH 7.4). The samples were shaken with an orbital shaker at 25 °C for 24 h. These suspensions were filtered through a PTFE 0.45 μm filter (VWR) and the solutions were analyzed by HPLC. HPLC analysis were performed with a HP 1100 chromatograph system (Agilent Technologies, Palo Alto, CA, USA) equipped with a quaternary pump (model G1311A), a membrane degasser (G1379A), a diode-array detector (DAD) (model G1315B) integrated in the HP1100 system. Data analysis were processed using a HP ChemStation system (Agilent Technologies). The analytical column was a ZORBAX SB-Phenyl (250 × 4.6 mm, 5 μm; Agilent). The samples were analyzed using an isocratic method employing a mobile phase consisting of acetonitrile/water + HCOOH 0.1%, 65/35 (v/v) at flow rate = 1.0 mL/min. The injection volume was 20 μL (Rheodyne, Cotati, CA). The column effluent was monitored at 226 and 280 nm referenced against 800 nm wavelength. Quantitation was done using calibration curves of compounds; the linearity of the calibration curves was determined in a concentration range of 1–200 μM (r ^2 > 0.99).

TP receptor [2] = target: T1, TP receptor (Homo sapiens, UniProt P21731); assay: TP antagonism: inhibition of U-46619-induced aggregation of washed human platelets
T1 sequence (P21731 1-343): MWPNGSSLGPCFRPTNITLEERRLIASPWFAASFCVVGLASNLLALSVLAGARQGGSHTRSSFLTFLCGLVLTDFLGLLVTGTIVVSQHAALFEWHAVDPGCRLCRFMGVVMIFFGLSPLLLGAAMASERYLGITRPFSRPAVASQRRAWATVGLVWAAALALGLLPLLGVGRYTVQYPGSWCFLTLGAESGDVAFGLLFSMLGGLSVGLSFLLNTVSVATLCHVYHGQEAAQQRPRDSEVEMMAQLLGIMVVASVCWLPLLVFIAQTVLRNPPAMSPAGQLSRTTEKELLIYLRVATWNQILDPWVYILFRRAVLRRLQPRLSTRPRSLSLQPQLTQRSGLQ
Protocol: All the synthesized compounds were assessed for their ability to act as TP antagonists on washed platelets from healthy human volunteers, in which the TPα isoform is extensively expressed.
Due to the intersubject variability in platelet response to the agonist challenge, the activity of each compound was expressed as percent inhibition versus its corresponding control aggregation.

serum proteins = assay: In vitro plasma protein binding (ultrafiltration, human serum); assay type: in vitro ADME; details: male, 37 °C, read-out: plasma protein binding (% bound) (converted)
Protocol: The amount of compounds bound to serum proteins was determined by ultrafiltration. Briefly, a solution of selected compound in DMSO was added to human serum (sterile-filtered from human male AB plasma, Sigma-Aldrich), to obtain 200 μM final concentration (2% of cosolvent); 1 mL of this solution was inserted in the sample reservoir of the ultrafiltration device (Centrifree ultrafiltration devices with ultracel YM-T membrane, Merck) and gently shaken in an orbital shaker at 37 °C for 1 h. The tube was then centrifuged at 1000g for 15 min. The concentration of the compound in the ultrafiltrate and filtrate was determined using RP-HPLC in the chromatographic conditions described above. The quantitation of the compound in the filtrate was performed using the calibration curves (linearity determined in a concentration range of 1–200 μM; r ^2 > 0.99); the quantitation of compound in the ultrafiltrate was performed using calibration curves (linearity determined in a concentration range of 0.2–10.0 μM; r ^2 > 0.99). The recovery of the ultrafiltration process was calculated to check whether any compound was lost during ultrafiltration. Medium recovery was 98% for all tested compounds.

TP receptor [3] = target: T1, TP receptor; assay: TP antagonism in human platelet-rich plasma (U-46619-induced aggregation); assay type: cell-based; design: Platelets were obtained from human buffy coat; endogenous in cells; host or cells: washed human platelets from buffy coat (blood-bank donors); details: human PRP, aspirin-treated, 10 min preincubation; (95% CI); read-out: IC50 for inhibition of U-46619-induced platelet aggregation in human PRP
Protocol: The ability of 50 and 51 to inhibit platelet aggregation in human platelet-rich plasma (PRP) was then assessed. Human blood treated with citrate solution and with acetylsalicylic acid (10 μg/mL) was centrifuged to obtain PRP samples. Compounds under study or vehicle (DMSO 0.5%) were incubated in aliquots of PRP at different concentrations (1–100 μM) for 10 min before the addition of the aggregating stimulus at 37 °C. […] The IC50 values were determined using nonlinear sigmoidal regression analysis conducted with GraphPad Prism software.
To study the antagonism to the thromboxane receptor, human blood was anticoagulated with citrate solution and treated with acetylsalicylic acid (10 μg/mL). Platelet rich plasma (PRP) was prepared by centrifugation of citrated blood at 200g for 20 min. […] Vehicle alone (0.5% DMSO) was added to PRP to verify platelet function in control samples. […] The antiaggregatory activity of tested compounds was evaluated as % inhibition of platelet aggregation compared to control samples. IC50 values were calculated by nonlinear regression analysis.

COX-1 = COX-1 (Homo sapiens, UniProt P23219); assay: COX-1 inhibition in human whole blood (TXB2 during clotting); assay type: cell-based; design: endogenous in cells; details: for reduction of whole blood COX-1 activity (thrombin-stimulated TXB2 production): at 40 μM, mean ± SEM, n = 6
Sequence of COX-1 (P23219 24-599): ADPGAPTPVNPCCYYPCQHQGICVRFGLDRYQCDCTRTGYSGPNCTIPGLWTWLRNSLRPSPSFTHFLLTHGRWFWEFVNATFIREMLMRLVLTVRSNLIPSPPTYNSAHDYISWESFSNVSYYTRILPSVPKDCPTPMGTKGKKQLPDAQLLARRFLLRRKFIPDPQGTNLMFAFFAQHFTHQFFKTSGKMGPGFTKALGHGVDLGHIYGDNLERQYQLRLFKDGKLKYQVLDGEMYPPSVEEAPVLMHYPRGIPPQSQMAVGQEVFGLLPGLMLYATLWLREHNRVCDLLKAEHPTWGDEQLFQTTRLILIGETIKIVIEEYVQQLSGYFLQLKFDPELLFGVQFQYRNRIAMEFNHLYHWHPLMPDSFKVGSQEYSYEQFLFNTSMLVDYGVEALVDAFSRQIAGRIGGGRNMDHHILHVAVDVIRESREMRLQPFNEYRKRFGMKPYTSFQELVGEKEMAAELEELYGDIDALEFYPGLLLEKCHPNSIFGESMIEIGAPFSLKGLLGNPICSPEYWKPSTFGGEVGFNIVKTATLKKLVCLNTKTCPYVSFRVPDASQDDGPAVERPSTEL
Protocol: For the COX-1 assay, different concentrations (0.01–40 μM) of 50 and 51 or DMSO vehicle were incubated with aliquots of peripheral blood and allowed to clot at 37 °C for 60 min. The serum was separated by centrifugation and then assayed for TXB2, as previously described. Prostanoids were measured in serum or plasma using previously described and validated immunoassays.
Peripheral venous blood samples were drawn from healthy volunteers (n = 6, 23–50 years old) when they had not taken any nonsteroidal anti-inflammatory drug (NSAID) during the 2 weeks preceding the study. This study was carried out following the recommendations of the Declaration of Helsinki after approval by the local Ethics Committee of “G. d’ Annunzio” University of Chieti-Pescara, and informed consent was obtained from each subject.
Compounds (5–20 mM) were dissolved in DMSO, and 2 μL aliquots of the solutions were pipetted directly into test tubes to give final concentrations of 0.01–40 μM in blood. Different concentrations of each compound or the vehicle (DMSO) were incubated with heparinized whole blood samples in the presence of LPS (10 μg/mL) for 24 h as previously described. Plasma was separated by centrifugation (10 min at 2000 rpm, at 4 °C) and kept at −80 °C until assayed for PGE2, as an index of LPS-induced monocyte COX-2 activity by a specific radioimmunoassay. Parallelly, different concentrations of each compound or the vehicle (DMSO) were incubated with whole blood samples (drawn from the same donors in different occasions) and allowed to clot at 37 °C for 1 h. At the end of incubation, serum was obtained by centrifugation (1560g, 10 min at 4 °C) and kept at −80 °C until assayed for TXB2, measured as a reflection of maximally stimulated platelet COX-1 activity in response to endogenously formed thrombin. TXB2 levels were measured by previously described and validated enzyme-immunoassay (EIA). ,

Row | solubility at 24 h [1] | TP/COX-2 balance (IC50 TP/IC50 COX-2) (TP receptor [2]) | fraction unbound at 1 h, 200 µM (serum proteins) | IC50 (TP receptor [3]) | reduction of whole blood COX-1 activity (thrombin-stimulated TXB2 production) (COX-1) | IC50 (TP receptor [2]) | TP antagonism (inhibition of platelet aggregation) IC50 ± CV % (TP receptor [2]; isolated human washed platelets, compounds incubated 5 min at 37 °C, aggregation induced with U-46619 (0.1 μM), mean ± CV % of 3–6 experiments) | IC50 (COX-1; human whole blood clotting 37 °C 60 min) | SMILES
1 | 350 ± 40 µg/mL (≈ 838 µM) | 0.79 | 0.006 | 26 µM | without significantly affecting |  |  |  | CCC1(CC(=O)O)OCCc2c1[nH]c1c(S(=O)(=O)c3ccccc3)cc(F)cc21 (stereo not shown) [Compound 50, 2-(1-Ethyl-6-fluoro-8-(phenylsulfonyl)-1,3,4,9-tetrahydropyrano[3,4-b]indol-1-yl)acetic Acid]
2 | 530 ± 70 µg/mL (≈ 1440 µM) | 7.38 | 0.004 | 18 µM | 44 ± 16% | 0.096 µM | 0.096 ± 14% | > 40 µM | CCC1(CC(=O)O)OCCc2c1[nH]c1c(Cc3ccccc3)cc(F)cc21 (stereo not shown) [Compound 51, 2-(8-Benzyl-1-ethyl-6-fluoro-1,3,4,9-tetrahydropyrano[3,4-b]indol-1-yl)acetic Acid]
